Active and inactive are the calls of the source. The calls are words filed in the database; no cut-off is given here.
How the values were obtained:
CDK9/cyclin T1 = CDK9/cyclin T1 (Homo sapiens, UniProt P50750); assay: Inhibition of CDK9/Cyclin-T1 (unknown origin) preincubated for 10 mins followed by substrate addition and measured after 60 mins in presence of ATP by ADP-Glo reagent based assay; assay type: protein-complex assay
[1] = target: Cyclin-dependent kinase 1/cyclin B1 (Homo sapiens) (UniProt P06493+P14635); assay: Inhibition of CDK1/Cyclin B1 (unknown origin) at 200 nM preincubated for 10 mins followed by substrate addition and measured after 60 mins in presence of ATP by ADP-Glo reagent based assay relative to control; assay type: protein-complex assay; details: time 70.0 min
[2] = target: Cyclin-dependent kinase 5/CDK5 activator 1 (Homo sapiens) (UniProt Q00535+Q15078); assay: Inhibition of CDK5/p25NCK (unknown origin) at 200 nM preincubated for 10 mins followed by substrate addition and measured after 60 mins in presence of ATP by ADP-Glo reagent based assay relative to control; assay type: protein-complex assay; details: time 70.0 min
[3] = target: CDK9/cyclin T1 (Homo sapiens) (UniProt O60563+P50750); assay: Inhibition of CDK9/cyclin T1 (unknown origin) at 200 nM preincubated for 10 mins followed by substrate addition and measured after 60 mins in presence of ATP by ADP-Glo reagent based assay relative to control; assay type: protein-complex assay; details: time 70.0 min
[4] = target: Cyclin-Y/Cyclin-dependent kinase 16 (Homo sapiens) (UniProt Q00536+Q8ND76); assay: Inhibition of CDK16/cyclin Y (unknown origin) at 200 nM preincubated for 10 mins followed by substrate addition and measured after 60 mins in presence of ATP by ADP-Glo reagent based assay relative to control; assay type: protein-complex assay; details: time 70.0 min
[5] = target: Cyclin-C/Cyclin-dependent kinase 19 (Homo sapiens) (UniProt Q9BWU1+P24863); assay: Inhibition of CDK19/cyclin C (unknown origin) at 200 nM preincubated for 10 mins followed by substrate addition and measured after 60 mins in presence of ATP by ADP-Glo reagent based assay relative to control; assay type: protein-complex assay; details: time 70.0 min
NCI-H596 = assay: Antiproliferative activity against human NCI-H596 cells incubated for 72 hrs by MTT assay; assay type: functional, cell-based; details: NCI-H596, 72 h
NCI-H1975 [6] = assay: Downregulation of Mcl-1 level in human Osimertinib-resistant NCI-H1975 cell measured after 8 hrs by Western blotting analysis; assay type: functional, cell-based; details: dose 0.05-2 µM
[7] = Downregulation of Mcl-1 level in human Osimertinib-resistant NCI-H1975 cell at 500 nM measured after 8 hrs by Western blotting analysis relative to control; assay type: functional
NCI-H1975 [8] = assay: Downregulation of Mcl-1 mRNA expression in human Osimertinib-resistant NCI-H1975 cell at 0.1 to 1.0 uM measured after 8 hrs by qPCR analysis; assay type: functional, cell-based; details: dose 0.1-1 µM
[9] = Antiproliferative activity against human Osimertinib-resistant NCI-H1975 cell assessed as cell growth inhibition incubated for 72 hrs by MTT assay; assay type: functional, cell-based; details: NCI-H1975, 72 h
NCI-H1975 [10] = assay: Downregulation of cleaved caspase-3 level in human Osimertinib-resistant NCI-H1975 cell measured after 16 hrs by Western blot analysis; assay type: functional, cell-based; details: dose 125-2000 nM
[11] = Half life in Sprague-Dawley rat at 2 mg/kg, iv measured upto 24 hrs; assay type: ADME, organism-based; details: in vivo
[12] = Metabolic stability in rat liver microsomes assessed as half life at 10 uM measured at 5 to 60 mins by LC-MS/MS analysis; assay type: ADME, Microsome; details: time 5-60 min
[13] = Toxicity in ICR mouse assessed as effect on body weight loss at 100 mg/kg, iv measured for 8 to 9 days; assay type: organism-based; details: in vivo, time 8-9 day
[14] = Antitumor activity against patient derived #2862 lung cancer organoid assessed as inhibition of growth measured after 4 days; assay type: functional, tissue-based; details: Homo sapiens, 96 h

Chain of Cyclin-dependent kinase 5/CDK5 activator 1 (Homo sapiens) (Q00535 whole entry): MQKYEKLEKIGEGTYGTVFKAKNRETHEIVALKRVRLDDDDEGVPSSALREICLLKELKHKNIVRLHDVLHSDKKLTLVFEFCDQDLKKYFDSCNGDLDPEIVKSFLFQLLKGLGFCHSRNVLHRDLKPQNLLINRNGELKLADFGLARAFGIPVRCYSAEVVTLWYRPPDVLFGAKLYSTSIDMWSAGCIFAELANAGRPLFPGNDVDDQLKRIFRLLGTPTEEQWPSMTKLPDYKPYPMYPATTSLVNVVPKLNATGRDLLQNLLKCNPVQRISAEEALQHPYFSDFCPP
Chain of Cyclin-dependent kinase 5/CDK5 activator 1 (Homo sapiens) (Q15078 99-307 partner limits assumed): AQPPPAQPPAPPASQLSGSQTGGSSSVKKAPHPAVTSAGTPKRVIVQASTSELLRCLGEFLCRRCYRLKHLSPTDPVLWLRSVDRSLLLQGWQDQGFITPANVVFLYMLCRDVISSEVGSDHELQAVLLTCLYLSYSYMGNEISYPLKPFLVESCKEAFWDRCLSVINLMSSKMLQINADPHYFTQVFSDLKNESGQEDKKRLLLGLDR
Chain of Cyclin-dependent kinase 1/cyclin B1 (Homo sapiens) (P06493 whole entry, looked up): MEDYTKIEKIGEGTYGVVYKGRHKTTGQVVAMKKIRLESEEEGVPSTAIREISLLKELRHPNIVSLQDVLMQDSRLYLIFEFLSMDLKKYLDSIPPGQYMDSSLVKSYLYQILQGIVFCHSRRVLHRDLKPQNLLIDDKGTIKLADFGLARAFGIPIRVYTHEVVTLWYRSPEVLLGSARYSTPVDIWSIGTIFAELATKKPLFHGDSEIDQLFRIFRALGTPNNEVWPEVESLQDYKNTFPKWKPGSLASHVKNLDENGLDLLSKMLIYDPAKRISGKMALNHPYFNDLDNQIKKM
Chain of Cyclin-dependent kinase 1/cyclin B1 (Homo sapiens) (P14635 whole entry, looked up): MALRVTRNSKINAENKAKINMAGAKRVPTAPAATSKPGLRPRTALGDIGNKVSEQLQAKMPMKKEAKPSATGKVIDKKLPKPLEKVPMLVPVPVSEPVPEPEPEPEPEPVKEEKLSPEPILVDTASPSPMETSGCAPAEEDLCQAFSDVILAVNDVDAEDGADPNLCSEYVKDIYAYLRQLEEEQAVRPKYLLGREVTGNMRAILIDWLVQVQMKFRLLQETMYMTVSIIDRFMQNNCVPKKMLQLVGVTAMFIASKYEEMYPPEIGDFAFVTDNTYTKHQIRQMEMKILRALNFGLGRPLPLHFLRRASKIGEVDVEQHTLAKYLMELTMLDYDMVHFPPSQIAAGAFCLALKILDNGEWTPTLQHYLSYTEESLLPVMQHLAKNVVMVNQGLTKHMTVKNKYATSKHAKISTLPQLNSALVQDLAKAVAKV
Chain of CDK9/cyclin T1 (O60563 whole entry): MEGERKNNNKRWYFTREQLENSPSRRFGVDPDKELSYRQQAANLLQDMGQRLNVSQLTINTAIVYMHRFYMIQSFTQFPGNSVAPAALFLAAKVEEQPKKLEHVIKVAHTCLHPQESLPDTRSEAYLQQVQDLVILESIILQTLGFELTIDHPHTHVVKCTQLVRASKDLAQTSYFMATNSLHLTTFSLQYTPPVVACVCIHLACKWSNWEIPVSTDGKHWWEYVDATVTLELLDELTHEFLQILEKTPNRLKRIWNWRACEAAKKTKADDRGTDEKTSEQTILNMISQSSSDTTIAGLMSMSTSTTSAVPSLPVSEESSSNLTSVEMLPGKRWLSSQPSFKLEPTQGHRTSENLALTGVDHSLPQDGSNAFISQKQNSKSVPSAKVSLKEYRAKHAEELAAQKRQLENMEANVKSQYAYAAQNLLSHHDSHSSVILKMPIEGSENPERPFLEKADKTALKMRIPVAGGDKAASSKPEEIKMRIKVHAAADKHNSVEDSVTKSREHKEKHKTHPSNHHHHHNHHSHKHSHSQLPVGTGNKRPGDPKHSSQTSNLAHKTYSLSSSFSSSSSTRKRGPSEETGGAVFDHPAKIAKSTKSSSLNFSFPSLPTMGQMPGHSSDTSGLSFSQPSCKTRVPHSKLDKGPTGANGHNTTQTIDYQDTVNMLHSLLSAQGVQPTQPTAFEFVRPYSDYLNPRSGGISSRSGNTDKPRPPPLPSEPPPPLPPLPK
Chain of CDK9/cyclin T1 (P50750 whole entry): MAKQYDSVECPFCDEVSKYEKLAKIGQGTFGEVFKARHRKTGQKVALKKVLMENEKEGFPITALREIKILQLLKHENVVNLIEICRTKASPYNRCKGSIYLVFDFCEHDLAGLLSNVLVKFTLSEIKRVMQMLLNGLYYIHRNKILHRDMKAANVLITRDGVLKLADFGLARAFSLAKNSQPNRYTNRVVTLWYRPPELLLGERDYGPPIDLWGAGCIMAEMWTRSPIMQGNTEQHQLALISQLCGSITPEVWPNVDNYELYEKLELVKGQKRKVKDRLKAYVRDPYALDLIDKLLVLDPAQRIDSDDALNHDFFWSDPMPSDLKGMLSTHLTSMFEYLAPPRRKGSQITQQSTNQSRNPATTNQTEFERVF

IC50 (CDK9/cyclin T1): 3.2 nM
inhibition [1]: 33%
inhibition [2]: 38.9%
inhibition [3]: 99.3%
inhibition [4]: 25.9%
inhibition [5]: 11.5%
IC50 (NCI-H596): 332 nM
half-life [11]: 108 min
half-life at 10 µM [12]: 6.8 min
SMILES: O=C(NCCN1CCOCC1)c1ccc2cc1OCCCCCCOc1cc(ccc1F)-c1nc(ncc1F)N2
Activity (NCI-H1975 [6]): Dose-Dependent Effect
Activity [7]: 90%
Activity (NCI-H1975 [8]): Active
IC50 [9]: 190 nM
Activity (NCI-H1975 [10]): Dose-Dependent Effect
Activity [13]: Non-Toxic
IC50 [14]: 940 nM
